From publication PMC8300687, “A Fine-Tuned Lipophilicity/Hydrophilicity Ratio Governs Antibacterial Potency and Selectivity of Bifurcated Halogen Bond-Forming NBTIs” (Antibiotics, 2021)
Converted amounts (≈) assume the structure as drawn. Read-outs that look alike come from different tables or passages of the source.

Tests used:
Human topoisomerase IIα = target: T1, Human topoisomerase IIα (Homo sapiens, UniProt P11388); assay: Human topoisomerase II Alpha Relaxation High Throughput Plate assay; assay type: biochemical; conditions: 0.5 h; residual activity of the enzyme at compound concentration 10 μM, mean ± SD; read-out: Human Topo II (% RA)
T1 construct: purchased Inspiralis (Norwich, UK)
Protocol: A Human topoisomerase II Alpha Relaxation High Throughput Plate assay kit, purchased from Inspiralis (Norwich, UK) was used to evaluate the selectivity of compounds for the bacterial enzymes over the homologous human topoisomerase II. […] Biotinylated oligonucleotide in wash buffer was immobilized onto the wells and the excess oligonucleotide was washed off with wash buffer. […] The reactions were stopped by adding the TF buffer (50 mM NaOAc (pH 4.7), 50 mM NaCl, and 50 mM MgCl2) to allow the triplex formation (biotin-oligonucleotide-plasmid) for additional 30 min. Afterward, the unbound plasmid was washed off using TF buffer, and the solution of Promega Diamond dye in T10 buffer (10 mM Tris-HCl (pH 8.0), 1 mM EDTA) was added. […] Screening was performed at inhibitor concentrations of 10 μM. Raw data were converted to mean ± SD percentage of residual activity of the enzyme obtained by two independent measurements.

S. aureus (ATCC 29213) = assay: MIC broth microdilution, S. aureus ATCC 29213; assay type: cell-based
Protocol: (§1) Antimicrobial testing was carried out by the broth microdilution method in 96-well plate format following the Clinical and Laboratory Standards Institute (CLSI) guidelines and European Committee on Antimicrobial Susceptibility Testing (EUCAST) recommendations. Bacterial suspension of specific bacterial strain equivalent to 0.5 McFarland turbidity standard was diluted with cation-adjusted Mueller Hinton broth with TES (Thermo Fisher Diagnostic, Landsmeer, The Netherlands), to obtain a final inoculum of 10^5 CFU/mL. Compounds dissolved in DMSO and inoculum were mixed together and incubated for 18–20 h at 35 °C. Suspensions of Mycobacterium sp. were prepared into a tube of Middelbrook 7H9 broth supplemented with 5% OADC (Thermo Scientific, Trek Diagnostic Systems, West Sussex, UK) and incubated for at least 10 days. After incubation the minimal inhibitory concentration (MIC) values were determined by visual inspection as the lowest dilution of compounds showing no turbidity. Tetracycline was used as a positive control on every assay plate.

MRSA = assay: MIC broth microdilution, MRSA; assay type: cell-based, methicillin-resistant S. aureus; conditions: Staphylococcus aureus, read-out: MIC MRSA
Protocol: as §1

MRSA (QA-11.7) = assay: MIC broth microdilution, MRSA QA-11.7; assay type: cell-based, methicillin-resistant S. aureus; conditions: Staphylococcus aureus, 20 h, read-out: MIC MRSA (QA-11.7)
Protocol: as §1

MRSA (QA-11.4) = assay: MIC broth microdilution, MRSA QA-11.4; assay type: cell-based, methicillin-resistant S. aureus; conditions: Staphylococcus aureus, 20 h, read-out: MIC MRSA (QA-11.4)
Protocol: as §1

MRSA (QA-11.2) = assay: MIC broth microdilution, MRSA QA-11.2; assay type: cell-based, methicillin-resistant S. aureus; conditions: Staphylococcus aureus, 20 h, read-out: MIC MRSA (QA-11.2)
Protocol: as §1

[1] = tested on: E. faecalis DRK 057 (ATCC 29212); assay: MIC broth microdilution, E. faecalis; assay type: cell-based
Protocol: as §1

S. pneumoniae (QA-10/02) = assay: MIC broth microdilution, S. pneumoniae; assay type: cell-based; conditions: Streptococcus pneumoniae
Protocol: as §1

[2] = tested on: S. agalactiae RDK 047 (QA-990/02); assay: MIC broth microdilution, S. agalactiae; assay type: cell-based
Protocol: as §1

E. coli (ATCC 25922) = assay: MIC broth microdilution, E. coli ATCC 25922; assay type: cell-based
Protocol: as §1

E. coli (QA-11.8) = assay: MIC broth microdilution, E. coli QA-11.8; assay type: cell-based
Protocol: as §1

E. coli (QA-11.3) = assay: MIC broth microdilution, E. coli QA-11.3; assay type: cell-based
Protocol: as §1

[3] = tested on: A. baumannii 8C6 (GES-14); assay: MIC broth microdilution, A. baumannii; assay type: cell-based
Protocol: as §1

[4] = tested on: P. aeruginosa RDK 184 (DSM 939); assay: MIC broth microdilution, P. aeruginosa; assay type: cell-based
Protocol: as §1

[5] = tested on: S. alachua RDK 030c (QA-1482/04); assay: MIC broth microdilution, S. alachua; assay type: cell-based
Protocol: as §1

M. avium = assay: MIC, M. avium; assay type: cell-based
Protocol: as §1

HUVEC = assay: Metabolic activity assessment (cytotoxicity), HUVEC; assay type: cell-based; conditions: Homo sapiens, metabolic activity after 72 h treatment
Protocol: Cells of the HepG2 line (ATCC® HB-8065™) and HUVEC (ATCC® CRL-1730™) were cultured in Dulbecco’s Modified Eagle Medium (DMEM; Sigma-Aldrich, St. Louis, MO, USA) supplemented with 10% heat-deactivated FBS (Gibco, Grand Island, NE, USA), 2 mM L-glutamine, 100 U/mL penicillin, 100 μg/mL streptomycin (all from Sigma-Aldrich, St. Louis, MO, USA) in a humidified chamber at 37 °C and 5% CO2. The experiments were carried out on passages 7–9 for both cell lines. The tested compounds were dissolved in DMSO and further diluted in culture medium to a desired final concentration. Cells were seeded into 96-well plates at 8 × 10^4 cells/mL (100 μL/well) and incubated for 24 h to attach onto the wells. Cells were treated with 1 μM and 50 μM of each compound of interest or corresponding vehicle as control. […] The metabolic activity was assessed after 72 h treatment using the CellTiter 96 Aqueous One Solution Cell Proliferation Assay (Promega, Madison, WI, USA), in accordance with the manufacturer’s instructions. The absorbance was measured at 492 nm on an automated microplate reader BioTek Synergy HT (BioTek Instruments, Inc., Winooski, VT, USA). Data are presented as the percentage of metabolic activity of control cells stimulated with vehicle or as IC50 value (mean ± SD) from two independent experiments, each conducted in duplicate or triplicate. IC50 values were calculated by a non-linear regression model using Graph Pad Prism 7 software.

[6] = Staphylococcus aureus, ATCC29213; S. aureus ATCC 29213; read-out: S. aureus MIC (converted)
[7] = Staphylococcus aureus, ATCC29213; read-out: MIC S. aureus (ATCC 29213)
[8] = resistant to cefoxitin, chloramphenicol, clindamycin, linezolid, tetracycline, thiamulin, trimethoprim
[9] = Enterococcus faecalis, ATCC29212; read-out: MIC E. faecalis DRK 057 (ATCC 29212)
[10] = Streptococcus agalactiae; read-out: MIC S. agalactiae RDK 047 (QA-990/02)
[11] = Escherichia coli, ATCC25922; E. coli ATCC 25922; read-out: E. coli MIC (converted)
[12] = Escherichia coli, ATCC25922; read-out: MIC E. coli (ATCC 25922)
[13] = Escherichia coli, 20 h; read-out: MIC E. coli (QA-11.8)
[14] = Escherichia coli, 20 h; read-out: MIC E. coli (QA-11.3)
[15] = Acinetobacter baumannii; read-out: MIC A. baumannii 8C6 (GES-14)
[16] = Pseudomonas aeruginosa, DSM939; read-out: MIC P. aeruginosa RDK 184 (DSM 939)
[17] = Salmonella; read-out: MIC S. alachua RDK 030c (QA-1482/04)
[18] = Mycobacterium avium; read-out: MIC M. avium

T1 sequence (P11388 whole entry): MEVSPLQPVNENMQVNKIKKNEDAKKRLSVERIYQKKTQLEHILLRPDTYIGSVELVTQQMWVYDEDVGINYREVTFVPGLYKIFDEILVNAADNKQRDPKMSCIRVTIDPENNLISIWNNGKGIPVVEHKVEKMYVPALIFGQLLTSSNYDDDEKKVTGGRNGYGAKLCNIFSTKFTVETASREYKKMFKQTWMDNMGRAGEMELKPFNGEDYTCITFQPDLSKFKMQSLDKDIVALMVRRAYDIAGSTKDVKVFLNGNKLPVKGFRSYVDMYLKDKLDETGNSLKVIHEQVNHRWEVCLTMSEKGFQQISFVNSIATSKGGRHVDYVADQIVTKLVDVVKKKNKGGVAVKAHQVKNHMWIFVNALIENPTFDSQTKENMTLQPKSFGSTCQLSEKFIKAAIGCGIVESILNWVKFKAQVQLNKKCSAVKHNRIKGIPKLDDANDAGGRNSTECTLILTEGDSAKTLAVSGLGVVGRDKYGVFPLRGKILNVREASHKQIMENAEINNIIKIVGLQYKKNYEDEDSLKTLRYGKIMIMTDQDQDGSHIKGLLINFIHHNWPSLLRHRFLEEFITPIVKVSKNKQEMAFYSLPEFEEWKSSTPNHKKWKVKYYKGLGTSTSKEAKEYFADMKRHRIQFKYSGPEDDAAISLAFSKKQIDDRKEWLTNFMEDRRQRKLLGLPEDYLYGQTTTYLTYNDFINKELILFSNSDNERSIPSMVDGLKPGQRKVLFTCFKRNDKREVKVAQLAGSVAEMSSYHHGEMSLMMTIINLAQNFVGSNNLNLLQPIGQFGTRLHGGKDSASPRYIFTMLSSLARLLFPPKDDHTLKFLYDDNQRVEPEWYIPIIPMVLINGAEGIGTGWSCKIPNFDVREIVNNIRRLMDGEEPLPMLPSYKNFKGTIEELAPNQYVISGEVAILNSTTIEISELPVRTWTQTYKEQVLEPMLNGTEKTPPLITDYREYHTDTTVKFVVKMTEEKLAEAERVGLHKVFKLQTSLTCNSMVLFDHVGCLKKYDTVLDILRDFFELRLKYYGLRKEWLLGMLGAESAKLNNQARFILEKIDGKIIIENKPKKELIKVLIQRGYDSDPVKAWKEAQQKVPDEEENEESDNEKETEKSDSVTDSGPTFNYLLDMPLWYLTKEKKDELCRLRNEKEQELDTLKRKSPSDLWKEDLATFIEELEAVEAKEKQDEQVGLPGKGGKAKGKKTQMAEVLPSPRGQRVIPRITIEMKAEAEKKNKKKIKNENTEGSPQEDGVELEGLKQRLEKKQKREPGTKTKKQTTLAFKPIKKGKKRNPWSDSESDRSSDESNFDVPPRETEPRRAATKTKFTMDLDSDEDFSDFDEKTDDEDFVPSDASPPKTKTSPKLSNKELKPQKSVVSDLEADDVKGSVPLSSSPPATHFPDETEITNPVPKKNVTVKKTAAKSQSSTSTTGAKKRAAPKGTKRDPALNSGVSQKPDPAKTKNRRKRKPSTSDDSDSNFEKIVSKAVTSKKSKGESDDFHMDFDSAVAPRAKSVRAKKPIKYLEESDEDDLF

Row | SMILES | remaining activity at 10 µM (Human topoisomerase IIα) [%] | MIC (S. aureus (ATCC 29213); [6]) [µM] | MIC (S. aureus (ATCC 29213); [7]) [µg/mL] | MIC (MRSA) [µg/mL] | MIC (MRSA (QA-11.7)) [µg/mL] | MIC (MRSA (QA-11.4); resistant to cefoxitin) [µg/mL] | MIC (MRSA (QA-11.2); [8]) [µg/mL] | MIC [1, 9] [µg/mL] | MIC (S. pneumoniae (QA-10/02)) [µg/mL] | MIC [2, 10] [µg/mL] | MIC (E. coli (ATCC 25922); [11]) [µM] | MIC (E. coli (ATCC 25922); [12]) [µg/mL] | MIC (E. coli (QA-11.8); [13]) [µg/mL] | MIC (E. coli (QA-11.3); [14]) [µg/mL] | MIC [3, 15] [µg/mL] | MIC [4, 16] [µg/mL] | MIC [5, 17] [µg/mL] | MIC (M. avium; [18]) [µg/mL] | IC50 (HUVEC) [µM] | other results
1 | COc1ccc2nccc(CCN3CCC(NCc4cnn(-c5ccc(F)cc5)c4)CC3)c2n1 [Compound 4, N-((1-(4-Fluorophenyl)-1H-pyrazol-4-yl)methyl)-1-(2-(6-methoxy-1,5-naphthyridin-4-yl)ethyl)piperidin-4-amine] | 88.41 ± 0.15 | 4.34 | 2 | 2 (≈ 4.34 µM) | 2 (≈ 4.34 µM) | 8 (≈ 17.4 µM) | 8 (≈ 17.4 µM) | 8 (≈ 17.4 µM) | 4 (≈ 8.69 µM) | 2 (≈ 4.34 µM) | 69.5 | 32 | 16 (≈ 34.7 µM) | 8 (≈ 17.4 µM) | 32 (≈ 69.5 µM) | > 128 | 128 (≈ 278 µM) | 128 (≈ 278 µM) | 9.64 ± 0.03 | –
2 | COc1ccc2nccc(CCN3CCC(NCc4cnn(-c5ccccc5)c4)CC3)c2n1 [Compound 5, 1-(2-(6-Methoxy-1,5-naphthyridin-4-yl)ethyl)-N-((1-phenyl-1H-pyrazol-4-yl)methyl)piperidin-4-amine] | 82.1 ± 2.52 | 0.57 | 0.25 | 0.5 (≈ 1.13 µM) | 0.5 (≈ 1.13 µM) | 1 (≈ 2.26 µM) | 1 (≈ 2.26 µM) | 1 (≈ 2.26 µM) | 0.5 (≈ 1.13 µM) | 1 (≈ 2.26 µM) | 36.1 | 16 | 2 (≈ 4.52 µM) | 2 (≈ 4.52 µM) | 4 (≈ 9.04 µM) | > 128 | 64 (≈ 145 µM) | 64 (≈ 145 µM) | 10.7 ± 0.01 | –
3 | COc1ccc2nccc(CCN3CCC(NCc4c(C)nc5c(C)cccn45)CC3)c2n1 [Compound 6, N-((2,8-Dimethylimidazo[1,2-a]pyridin-3-yl)methyl)-1-(2-(6-methoxy-1,5-naphthyridin-4-yl)ethyl)piperidin-4-amine] | 99.4 ± 9.93 | – | – | > 128 | > 128 | – | – | – | > 128 | – | – | – | – | – | – | – | – | – | > 50 | MIC (S. aureus (ATCC 29213); Staphylococcus aureus, ATCC29213, read-out: MIC S. aureus (ATCC 29213)): > 128 µg/mL; MIC (S. aureus (ATCC 29213); Staphylococcus aureus, ATCC29213, read-out: S. aureus MIC in molar): 288 µM; MIC (MRSA (QA-11.4)): > 128 µg/mL; MIC (MRSA (QA-11.2)): > 128 µg/mL; MIC ([1]; Enterococcus faecalis, ATCC29212, read-out: MIC E. faecalis DRK 057 (ATCC 29212)): > 128 µg/mL; MIC ([2]; Streptococcus agalactiae, read-out: MIC S. agalactiae RDK 047 (QA-990/02)): 128 µg/mL (≈ 288 µM); MIC (E. coli (ATCC 25922); Escherichia coli, ATCC25922, 20 h, read-out: E. coli MIC in molar): 288 µM; MIC (E. coli (ATCC 25922); Escherichia coli, ATCC25922, read-out: MIC E. coli (ATCC 25922)): > 128 µg/mL; MIC (E. coli (QA-11.8); Escherichia coli, 20 h, read-out: MIC E. coli (QA-11.8)): > 128 µg/mL; MIC (E. coli (QA-11.3); Escherichia coli, 20 h, read-out: MIC E. coli (QA-11.3)): 128 µg/mL (≈ 288 µM); MIC ([3]; Acinetobacter baumannii, read-out: MIC A. baumannii 8C6 (GES-14)): > 128 µg/mL; MIC ([4]; Pseudomonas aeruginosa, DSM939, read-out: MIC P. aeruginosa RDK 184 (DSM 939)): > 128 µg/mL; MIC ([5]; Salmonella, read-out: MIC S. alachua RDK 030c (QA-1482/04)): > 128 µg/mL; MIC (M. avium; Mycobacterium avium, read-out: MIC M. avium): > 128 µg/mL
4 | COc1ccc2nccc(CCN3CCC(NCc4cnn(-c5ccccc5)n4)CC3)c2n1 [Compound 8, 1-(2-(6-Methoxy-1,5-naphthyridin-4-yl)ethyl)-N-((2-phenyl-2H-1,2,3-triazol-4-yl)methyl)piperidin-4-amine] | 94.2 ± 2.9 | 1.13 | 0.5 | 0.5 (≈ 1.13 µM) | 0.5 (≈ 1.13 µM) | 1 (≈ 2.25 µM) | 0.5 (≈ 1.13 µM) | 1 (≈ 2.25 µM) | 0.25 (≈ 0.564 µM) | 0.5 (≈ 1.13 µM) | 144 | 64 | 32 (≈ 72.1 µM) | 32 (≈ 72.1 µM) | 32 (≈ 72.1 µM) | > 128 | > 128 | 32 (≈ 72.1 µM) | 39.4 ± 5.47 | –
5 | COc1ccc2nccc(CCN3CCC(NCc4cnn(C(C)C)c4)CC3)c2n1 [Compound 9, N-((1-Isopropyl-1H-pyrazol-4-yl)methyl)-1-(2-(6-methoxy-1,5-naphthyridin-4-yl)ethyl)piperidin-4-amine] | 101 ± 6.82 | 0.31 | 0.125 | 0.25 (≈ 0.612 µM) | 1 (≈ 2.45 µM) | 1 (≈ 2.45 µM) | 1 (≈ 2.45 µM) | 1 (≈ 2.45 µM) | 0.5 (≈ 1.22 µM) | 0.5 (≈ 1.22 µM) | 19.6 | 8 | 8 (≈ 19.6 µM) | 4 (≈ 9.79 µM) | 2 (≈ 4.9 µM) | > 128 | 64 (≈ 157 µM) | 128 (≈ 313 µM) | > 50 | –
6 | C=CCn1cc(CNC2CCN(CCc3ccnc4ccc(OC)nc34)CC2)cn1 [Compound 10, N-((1-Allyl-1H-pyrazol-4-yl)methyl)-1-(2-(6-methoxy-1,5-naphthyridin-4-yl)ethyl)piperidin-4-amine] | 95.7 ± 6.42 | 4.92 | 2 | 2 (≈ 4.92 µM) | 4 (≈ 9.84 µM) | 4 (≈ 9.84 µM) | 4 (≈ 9.84 µM) | 8 (≈ 19.7 µM) | 1 (≈ 2.46 µM) | 4 (≈ 9.84 µM) | 39.4 | 16 | 16 (≈ 39.4 µM) | 8 (≈ 19.7 µM) | 32 (≈ 78.7 µM) | > 128 | 128 (≈ 315 µM) | > 128 | > 50 | –
